This assay is described as follows: Copper-ions chelating capacity (LDL oxidation at increasing CuSO4). It counts as biochemical. The following applies: 25 μmol/L of EDTA; TBARS, two hours, 37° C. How it is done:
In order to examine whether pomegranate juice inhibits LDL oxidation by chelation of metal ions, LDL (100 mg of protein/L) was incubated with 0.2 mL of pomegranate juice/L (0.56 μmol of polyphenols/L) in the presence of increasing concentrations of copper ions. Incubation of LDL with 25 μmol/L of Na2 EDTA served as a positive control, as EDTA is a potent chelator of metal ions. […] At higher copper ion concentrations, EDTA could no longer overcome the pro-oxidative effect of CuSO4.

Results on one compound are retold here after US6375993B1, “Pomegranate extracts and methods of using thereof” (priority 1999, dated 2002).

Turning to `O=C([O-])CN(CCN(CC(=O)[O-])CC(=O)O)CC(=O)O.[Na+].[Na+]` [EDTA, Na2 EDTA], the “CuSO4 concentration up to which copper ion-induced LDL oxidation was inhibited” value is “up to 40 μmol/L”.
